Measured values as given in ChEMBL document CHEMBL1201862, “PubChem BioAssay data set” (2004).
The source made the active and inactive calls.

Experiments:
Estrogen receptor = biological target: T1, Estrogen receptor (Homo sapiens, UniProt P03372);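 also: potency for inhibiting coactivator peptide recruitment to the receptor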
T1 sequence (P03372 whole entry): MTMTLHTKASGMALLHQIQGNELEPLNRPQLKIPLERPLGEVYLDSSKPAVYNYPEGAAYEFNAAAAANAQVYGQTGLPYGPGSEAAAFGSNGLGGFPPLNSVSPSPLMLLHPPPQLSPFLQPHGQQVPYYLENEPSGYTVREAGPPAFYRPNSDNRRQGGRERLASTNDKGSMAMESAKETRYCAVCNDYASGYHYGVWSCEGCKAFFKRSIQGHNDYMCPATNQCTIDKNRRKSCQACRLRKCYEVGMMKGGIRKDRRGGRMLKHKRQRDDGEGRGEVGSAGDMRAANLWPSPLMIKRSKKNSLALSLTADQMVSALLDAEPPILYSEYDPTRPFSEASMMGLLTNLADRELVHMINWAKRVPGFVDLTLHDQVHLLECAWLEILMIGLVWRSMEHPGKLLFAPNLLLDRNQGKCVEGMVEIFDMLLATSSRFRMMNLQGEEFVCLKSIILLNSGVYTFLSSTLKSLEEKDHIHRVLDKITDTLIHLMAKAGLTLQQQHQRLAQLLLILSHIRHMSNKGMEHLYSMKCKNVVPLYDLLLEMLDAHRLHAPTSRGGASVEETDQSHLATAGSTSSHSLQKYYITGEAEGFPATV

[1] = biological target: T2, Short transient receptor potential channel 4 (Mus musculus, UniProt Q9QUQ5); assay: mouse TRPC4 channel activators, dose response, cell-based, HEK293 TRPC4/mu-opioid, Fluo-4 calcium (AID 434937); assay type: functional
T2 sequence (Q9QUQ5 whole entry): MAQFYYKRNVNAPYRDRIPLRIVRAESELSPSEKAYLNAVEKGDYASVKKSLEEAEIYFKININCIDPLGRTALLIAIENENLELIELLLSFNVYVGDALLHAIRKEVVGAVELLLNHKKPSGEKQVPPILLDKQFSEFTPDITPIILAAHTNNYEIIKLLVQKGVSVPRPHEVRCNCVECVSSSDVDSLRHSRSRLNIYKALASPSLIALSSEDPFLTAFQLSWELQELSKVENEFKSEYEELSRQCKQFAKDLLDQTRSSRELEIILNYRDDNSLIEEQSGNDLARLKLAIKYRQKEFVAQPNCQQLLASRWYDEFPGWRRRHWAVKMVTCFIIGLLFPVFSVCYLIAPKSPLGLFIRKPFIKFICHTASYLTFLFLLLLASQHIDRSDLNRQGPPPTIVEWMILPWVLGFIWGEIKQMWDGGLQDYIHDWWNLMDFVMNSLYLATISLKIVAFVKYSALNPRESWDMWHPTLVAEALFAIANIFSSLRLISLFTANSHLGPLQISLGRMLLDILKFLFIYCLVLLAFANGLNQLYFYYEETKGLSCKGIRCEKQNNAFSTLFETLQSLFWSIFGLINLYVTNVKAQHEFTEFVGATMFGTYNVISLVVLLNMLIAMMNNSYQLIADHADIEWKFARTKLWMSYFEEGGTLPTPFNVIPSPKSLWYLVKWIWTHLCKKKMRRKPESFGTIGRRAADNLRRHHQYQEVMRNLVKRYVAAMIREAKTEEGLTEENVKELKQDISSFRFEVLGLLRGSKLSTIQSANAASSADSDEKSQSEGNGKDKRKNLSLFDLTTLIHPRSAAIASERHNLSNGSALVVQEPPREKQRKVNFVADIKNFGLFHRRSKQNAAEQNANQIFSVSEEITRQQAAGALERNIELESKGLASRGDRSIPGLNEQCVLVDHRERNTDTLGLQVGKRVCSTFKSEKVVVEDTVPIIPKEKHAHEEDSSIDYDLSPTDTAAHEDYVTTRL

[2] = biological target: T3, Lysine-specific demethylase 4C (Homo sapiens, UniProt Q9H3R0); assay: GASC-1 (JMJD2C) histone demethylase inhibitors, dose response, biochemical, DELFIA europium, cherry-picked samples (AID 488835); assay type: functional
T3 sequence (Q9H3R0 whole entry): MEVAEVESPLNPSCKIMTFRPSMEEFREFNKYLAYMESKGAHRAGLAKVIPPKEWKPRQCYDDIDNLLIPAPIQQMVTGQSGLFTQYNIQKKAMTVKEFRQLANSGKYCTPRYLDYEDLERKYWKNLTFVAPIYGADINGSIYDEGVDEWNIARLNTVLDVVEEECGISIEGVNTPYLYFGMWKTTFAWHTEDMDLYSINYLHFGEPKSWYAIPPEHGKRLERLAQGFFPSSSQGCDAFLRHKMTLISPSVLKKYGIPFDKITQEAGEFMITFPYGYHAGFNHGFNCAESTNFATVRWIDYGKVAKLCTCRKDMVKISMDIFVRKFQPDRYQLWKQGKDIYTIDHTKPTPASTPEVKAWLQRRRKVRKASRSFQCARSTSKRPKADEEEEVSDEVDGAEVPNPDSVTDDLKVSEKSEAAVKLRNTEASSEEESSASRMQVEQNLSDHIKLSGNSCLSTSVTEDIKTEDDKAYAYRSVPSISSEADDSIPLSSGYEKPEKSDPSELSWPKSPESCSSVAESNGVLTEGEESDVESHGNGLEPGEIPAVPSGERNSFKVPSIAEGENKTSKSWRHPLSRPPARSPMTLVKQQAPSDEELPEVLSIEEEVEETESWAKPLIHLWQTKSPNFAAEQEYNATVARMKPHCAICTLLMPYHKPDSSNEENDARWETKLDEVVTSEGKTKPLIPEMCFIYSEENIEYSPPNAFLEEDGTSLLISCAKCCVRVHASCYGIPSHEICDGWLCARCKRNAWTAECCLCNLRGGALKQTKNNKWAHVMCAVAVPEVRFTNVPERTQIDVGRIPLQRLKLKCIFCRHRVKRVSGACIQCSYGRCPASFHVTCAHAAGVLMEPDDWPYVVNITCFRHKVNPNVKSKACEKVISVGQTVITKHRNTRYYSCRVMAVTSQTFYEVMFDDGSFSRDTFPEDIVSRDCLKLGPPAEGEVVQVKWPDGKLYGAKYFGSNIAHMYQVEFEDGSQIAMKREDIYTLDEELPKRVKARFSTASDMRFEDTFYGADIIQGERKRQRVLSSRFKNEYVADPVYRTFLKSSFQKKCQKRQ

[3] = THP-1 cell cytotoxicity, dose response, cytotoxicity control for non-replicating M. tuberculosis project (AID 489025); assay type: functional
[4] = HepG2 cell cytotoxicity, dose response, cytotoxicity control for non-replicating M. tuberculosis project (AID 489018); assay type: functional; conditions: Mycobacterium tuberculosis
[5] = Vero E6 cell cytotoxicity, dose response, cytotoxicity control for non-replicating M. tuberculosis project, secondary assay (AID 492998); assay type: functional, VeroE6; conditions: Vero C1008
cells = assay type: functional
INS1 = assay: beta cell apoptosis inhibitors, cytokine rescue, dose response, luminescence, retest (AID 449756); assay type: functional, cell-based; conditions: Rattus norvegicus;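 also: cell death triggered by IL-1 beta plus TNF-alpha plus IFN-gamma mixture; protective hits raise ATP signal compared with cytokine alone wells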
[6] = A549 cell cytotoxicity, dose response, cytotoxicity control, plate reader, cherry-pick, antagonist series (AID 743412); assay type: functional, cell-based
[7] = HepG2 cell cytotoxicity, dose response, cytotoxicity control, plate reader, cherry-pick, antagonist series (AID 743416); assay type: functional, cell-based
[8] = MC4R antagonists, dose response, counter-screen for LGR2 antagonist project, cell-based, plate reader, cherry pick (AID 743444); assay type: functional;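 also: transfected HEK 293 cells stimulated with alpha-MSH peptide; potency of inhibitors of the alpha-MSH evoked signal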
[9] = HEK293 cell cytotoxicity, dose response, cytotoxicity control, plate reader, cherry-picked samples (AID 743446); assay type: functional, cell-based
Troponin, cardiac muscle = Troponin, cardiac muscle (Homo sapiens, UniProt P19429+P45379+P63316); assay: Fluorescence-based biochemical high throughput dose response assay for activators of the calcium sensitivity of cardiac Regulated Thin Filaments (RTF). [Related pubchem assays (depositor defined):AID493008, AID493018, AID504382, AID504383]; assay type: protein-complex assay
[10] = biological target: Luciferin 4-monooxygenase (Photinus pyralis, UniProt P08659); assay: Counter Screen for Luciferase-based Assay Positives. [Related pubchem assays: 620, 618, 411 ]
HT-1080 = assay: cytotoxicity in HT1080 fibrosarcoma cells, cell-based, fluorescence readout (AID 620); assay type: functional; conditions: Homo sapiens
[11] = biological target: T4, Microphthalmia-associated transcription factor (Homo sapiens, UniProt O75030); assay: TRPM1 promoter luciferase signal decrease, dose response, MITF inhibitor project, cell-based, SK-MEL-5, cherry-picked, set 3 (AID 493073); assay type: functional
T4 sequence (O75030 whole entry): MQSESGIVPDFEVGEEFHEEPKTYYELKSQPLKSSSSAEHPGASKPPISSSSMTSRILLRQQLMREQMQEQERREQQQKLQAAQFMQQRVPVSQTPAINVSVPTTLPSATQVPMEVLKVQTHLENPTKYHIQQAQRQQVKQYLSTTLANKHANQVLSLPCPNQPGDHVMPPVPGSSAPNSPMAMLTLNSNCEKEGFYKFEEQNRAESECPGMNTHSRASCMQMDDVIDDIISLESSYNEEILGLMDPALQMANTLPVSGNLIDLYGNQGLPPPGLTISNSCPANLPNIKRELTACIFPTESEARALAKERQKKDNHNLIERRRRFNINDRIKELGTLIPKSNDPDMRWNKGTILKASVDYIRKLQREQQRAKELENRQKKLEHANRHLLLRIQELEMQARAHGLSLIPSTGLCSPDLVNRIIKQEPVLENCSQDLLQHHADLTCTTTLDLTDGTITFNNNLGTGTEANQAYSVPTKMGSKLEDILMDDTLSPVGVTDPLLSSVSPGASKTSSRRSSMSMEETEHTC

[12] = biological target: Voltage-gated inwardly rectifying potassium channel KCNH2 (Homo sapiens, UniProt Q12809); conditions: Potency;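 also: confirmatory quantitative high-throughput screen measuring inhibition of hERG channel activity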
Chain of Voltage-gated inwardly rectifying potassium channel KCNH2 (Q12809 whole entry): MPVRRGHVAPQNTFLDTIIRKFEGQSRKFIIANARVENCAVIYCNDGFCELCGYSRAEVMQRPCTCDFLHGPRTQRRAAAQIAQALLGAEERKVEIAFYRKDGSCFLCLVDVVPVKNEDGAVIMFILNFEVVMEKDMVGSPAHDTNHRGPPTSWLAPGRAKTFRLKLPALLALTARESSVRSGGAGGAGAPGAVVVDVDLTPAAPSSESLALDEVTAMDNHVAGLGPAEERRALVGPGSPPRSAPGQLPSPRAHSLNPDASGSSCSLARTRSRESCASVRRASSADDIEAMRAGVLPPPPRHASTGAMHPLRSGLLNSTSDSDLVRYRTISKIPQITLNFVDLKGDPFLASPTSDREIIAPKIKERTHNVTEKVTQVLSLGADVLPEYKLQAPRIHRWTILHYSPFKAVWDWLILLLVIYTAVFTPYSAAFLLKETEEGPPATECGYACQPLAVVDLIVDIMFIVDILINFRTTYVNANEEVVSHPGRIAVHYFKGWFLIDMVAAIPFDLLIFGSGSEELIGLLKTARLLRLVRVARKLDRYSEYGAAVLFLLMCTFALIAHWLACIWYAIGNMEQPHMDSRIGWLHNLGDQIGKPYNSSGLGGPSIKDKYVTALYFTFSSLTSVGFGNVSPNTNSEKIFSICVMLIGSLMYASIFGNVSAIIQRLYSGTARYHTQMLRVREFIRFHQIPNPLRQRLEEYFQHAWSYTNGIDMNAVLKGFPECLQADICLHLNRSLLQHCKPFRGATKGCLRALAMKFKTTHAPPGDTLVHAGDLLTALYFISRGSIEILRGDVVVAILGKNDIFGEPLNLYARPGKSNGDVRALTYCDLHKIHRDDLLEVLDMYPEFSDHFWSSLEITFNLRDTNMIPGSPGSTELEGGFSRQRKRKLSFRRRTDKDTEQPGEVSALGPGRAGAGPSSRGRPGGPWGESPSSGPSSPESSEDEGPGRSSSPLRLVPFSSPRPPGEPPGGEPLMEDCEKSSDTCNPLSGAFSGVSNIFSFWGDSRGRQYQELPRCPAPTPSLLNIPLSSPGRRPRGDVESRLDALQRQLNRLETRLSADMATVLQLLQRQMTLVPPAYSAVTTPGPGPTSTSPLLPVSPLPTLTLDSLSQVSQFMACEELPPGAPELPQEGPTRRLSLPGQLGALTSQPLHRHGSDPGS

Chain of Luciferin 4-monooxygenase (P08659 whole entry): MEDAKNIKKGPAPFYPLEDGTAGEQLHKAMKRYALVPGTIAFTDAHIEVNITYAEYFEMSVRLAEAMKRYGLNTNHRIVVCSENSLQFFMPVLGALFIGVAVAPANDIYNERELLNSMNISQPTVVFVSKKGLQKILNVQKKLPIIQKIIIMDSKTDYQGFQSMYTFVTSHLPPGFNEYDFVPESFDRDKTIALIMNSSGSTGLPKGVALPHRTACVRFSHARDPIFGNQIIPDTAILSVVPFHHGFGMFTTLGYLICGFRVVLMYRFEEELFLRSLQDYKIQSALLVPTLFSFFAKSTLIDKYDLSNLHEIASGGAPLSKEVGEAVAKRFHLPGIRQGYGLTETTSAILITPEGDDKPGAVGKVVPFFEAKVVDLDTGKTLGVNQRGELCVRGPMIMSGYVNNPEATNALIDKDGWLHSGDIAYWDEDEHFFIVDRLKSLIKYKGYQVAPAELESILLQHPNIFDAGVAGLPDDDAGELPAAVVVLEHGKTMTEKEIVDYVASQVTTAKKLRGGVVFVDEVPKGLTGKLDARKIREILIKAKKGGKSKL

Structure (SMILES): CCN(c1ccccc1)S(=O)(=O)c1ccc2ncc(C(=O)NCCOC)c(O)c2c1
- IC50 (Estrogen receptor): 27.9 µM (active)

Structure (SMILES): Cc1c(Cl)cccc1NC(S)=NCC(c1cccnc1)N(C)C (stereo unspecified)
- EC50 [1]: 0.0013 µM (active)

Structure (SMILES): Cn1c(Cc2ccccc2)nnc1SCC(=O)c1cccs1
- IC50 (Estrogen receptor): > 50 µM (not active)

Structure (SMILES): O=C(NCc1ccccn1)c1cn(Cc2ccccc2)nn1
- AC50 [2]: > 60 µM (inactive)

Structure (SMILES): CN(C)C(CNC(=O)c1ccc2[nH]cnc2c1)c1ccccc1 (stereo unspecified)
- EC50 [1]: 0.473 µM (active)

Structure (SMILES): COc1cc(CNCCO)cc(Cl)c1OCc1ccc(Cl)cc1Cl
- CC50 [3]: 12.5 µM (active)
- CC50 [4]: 15.1 µM (active)
- CC50 [5]: 14.1 µM (active)
- IC50 (cells): 24.5 µM (active)
- AC50 (INS1): 8.94 µM (active)
- AC50 [6]: 13.9 µM (active)
- AC50 [7]: 11.2 µM (active)
- AC50 [8]: 43.2 µM (active)
- AC50 [9]: 15.6 µM (active)

Structure (SMILES): Cc1ccnc(N/C=C(\C#N)c2nc(-c3cccc(Br)c3)cs2)c1
- EC50 (Troponin, cardiac muscle): 0.761 µM (active)

Structure (SMILES): CCOC(=O)/C(=C/C=C1\Sc2cc(OCC)c(OCC)cc2N1CC)C(C)=O
- EC50 (Troponin, cardiac muscle): 0.165 µM (active)

Structure (SMILES): CCc1ccc(-c2cc(C(=O)Nn3cnnc3)c3ccccc3n2)cc1
- EC50 [10]: 2.73 µM (active)
- EC50 (HT-1080): > 50 µM (not active)
- AC50 [11]: 12.5 µM (active)

Structure (SMILES): C[C@H](CO)N1C[C@H](C)[C@@H](CN(C)Cc2ccc3c(c2)OCO3)Oc2c(NC(=O)C3CCCCC3)cccc2C1=O
- AC50 [2]: 13.1 µM (active)

Structure (SMILES): COc1cc(CNC(=O)CCCCCCC(C)C)ccc1O [DIHYDROCAPSAICIN]
- AC50 [12]: 35.5 µM (inconclusive)
